Reference: patent publication US9018235B2, “Insecticide compositions” (priority 2004, dated 2015)
Read-outs that look alike come from different tables or passages of the source.

What was measured:
Assay type in all cases: in vivo
[1] = system: Plutella xylostella; experiment: Insecticidal effect against Plutella xylostella through plant-root soil drenching of cabbage (Test Example 4); settings: single compound, plant-root drench, 2-instar larvae
Description: (§1) When the effect obtained by combination of two kinds of the active compounds exceeds the expected value E as calculated by the below-described equation of Colby et al., the synergistic effect is deemed to exist. E=X+Y−X·Y/100 [Equation 2] wherein • E=the death rate of larvae obtained when the active compounds A and B are used at the dose of m and n, respectively; • X=the death rate of larvae when the active compound A is used at the dose of m; • Y=the death rate of larvae when the active compound B is used at the dose of n.
A test compound was dissolved by adding acetone containing 5% of Tween 20 (tradename) at the rate of 0.1 ml per 1 mg of the test compound, and the solution was diluted with ion-exchange water to a total volume of 3 ml. Each of the insecticide solutions prepared was drenched onto the surface of the plant root soil for a cabbage plant grown in a cell tray (with a soil capacity of 24 ml). Four days later, the above-ground part of the plant was cut and placed in a plastic cup, into which 10 heads of 2-instar larvae of Plutella xylostella were released. The cup was kept in a breeding chamber controlled at a constant temperature (25° C.), and the number of living larvae was counted 4 days later. Death rate of larvae=(Number of larvae dead)/(Number of larvae tested)×100 [Equation 5]

[2] = system: Chilo suppressalis
Description: as §1
A test compound was dissolved by adding acetone containing 5% of Tween 20 (tradename) at the rate of 0.1 ml per 1 mg of the test compound, and the insecticide solution prepared by diluting the solution with ion-exchange water to a predetermined concentration was drenched onto the surface of the soil for raising rice seedlings (5 to 6 seedlings/plant as planted in a paper pot) in the 2.5- to 3-leaf stage at the rate of 1 ml per plant. Two days later, the stalks about 2 cm higher above the soil surface were cut and placed in a test tube, into which 10 heads of 3-instar larvae of Chilo suppressalis were released. The test rube was kept in a breeding chamber controlled at a constant temperature (25° C.), and the number of living larvae was counted 4 to 5 days later. Death rate of larvae=(Number of larvae dead)/(Number of larvae tested)×100 [Equation 4]

[3] = system: Spodoptera litura; experiment: Insecticidal effect against Spodoptera litura through soaking treatment of soybean roots (Test Example 2); settings: single compound, soybean root soaking, 3-instar larvae
Description: as §1
A test compound was dissolved by adding acetone containing 5 of Tween 20 (tradename) at the rate of 0.1 ml per 1 mg of the test compound, and the insecticide solution prepared by diluting the solution with ion-exchange water to a predetermined concentration was charged into a light-shielded Erlenmeyer flask (100 ml), into which the root portion of a soybean plant in the stage of development of primary leaves was soaked after being washed with running water to remove soil. Five days after root soaking, two primary leaves were cut off and placed in an ice-cream cup (with a capacity of 180 ml), into which 10 heads of 3-instar larvae were released. The ice-cream cup was kept in a breeding room controlled at a constant temperature (25° C.), and 5 days later, the number of dead larvae was counted. Death rate of larvae=(Number of larvae dead)/(Number of larvae tested)×100 [Equation 3]

[4] = system: Spodoptera litura; experiment: Insecticidal effect against Spodoptera litura by soaking treatment of soybean leaves (Test Example 1); settings: single compound, 0.03 ppm; soybean leaf soaking; 3-instar larvae; 25° C.
Protocol: A test compound was dissolved by addition of acetone containing 5% of Tween 20 (tradename) at the rate of 0.1 ml per 1 mg of the test compound, and after the solution is diluted with aqueous 5,000-fold diluted DAIN solution to a predetermined concentration, soybean leaves after complete development of primary leaves were treated through soaking in the insecticide solution for several seconds. After the insecticide solution was dried, four primary leaves were cut off and placed in an ice-cream cup (with a capacity of 180 ml), in which 10 heads of 3-instra larvae of Spodoptera litura were released. The ice-cream cup was kept in a breeding room controlled at a constant temperature (25° C.), and the number of dead larvae was counted three days later. Death rate of larvae=(Number of larvae dead)/(Number of larvae tested)×100 [Equation 1]
as §1

[5] = system: Plutella xylostella; experiment: Insecticidal effect against Plutella xylostella through soaking treatment of cabbage leaf (Test Example 5); settings: single compound, amount applied 0.0064 mg/plant (as headed), 2-instar larvae
Description: as §1
A test compound was dissolved by adding acetone containing 5% of Tween 20 (tradename) at the rate of 0.1 ml per 1 mg of the test compound, and the insecticide solution was prepared by diluting the solution with an aqueous 5.000-fold diluted DAIN solution to a predetermined concentration. A cabbage leaf was cut off at the site of petiole and soaked in the insecticide solution for several seconds. […] The cup was kept in a breeding room controlled at a constant temperature (25° C.), and the number of dead larvae was counted 4 days later. The death rate of larvae was calculated by the following equation, and the results were shown in Table 8: (Death rate of larvae=(Number of larvae dead)/(Number of larvae tested)×100 [Equation 6]

`CNC(=N[N+](=O)[O-])NCC1CCOC1` (racemic) [Dinotefuran, (RS)-1-methyl-2-nitro-3-(tetrahydro-3-furylmethyl)guanidine] was tested, and the “Death rate, 4 days later, %” value ([1]; 0.0016 mg/plant) was 0%, the “Death rate, 4 days later, %” value ([1]; 0.04 mg/plant) was 10% and the “Death rate, 5 days later, %” value ([2]; in vivo) was 0%.

`CN/C(=N\[N+](=O)[O-])NCc1cnc(Cl)s1` [Clothianidin, (E)-1-(2-chloro-1,3-thiazol-5-ylmethyl)-3-methyl-2-nitroguanidine] was tested, and the “Death rate, 5 days later, %” value ([3]; 0.00032 ppm) was 0%, the “Death rate, 4 days later, %” value ([2]; single compound, 0.001 mg/plant, soil drench, rice, 3-instar larvae) was 10% and the “Death rate, 3 days later, %” value [4] was 0%.

For `Cc1cccc(C(=O)NC(C)C)c1NC(=O)c1cc(C(F)(F)F)nn1-c1ncccc1Cl` [Compound (I-1), 2-[1-(3-chloropyridin-2-yl)-3-trifluoromethylpyrazol-5-ylcarbonylamino]-N-isopropyl-3-methylbenzamide], the “Death rate, 5 days later, %” value ([3]; 0.007 ppm) was 55% and the “Death rate, 4 days later, %” value ([2]; single compound, 0.01 mg/plant, soil drench, rice, 3-instar larvae) was 30%.

`Cc1cc(Cl)cc(C(=O)NC(C)C)c1NC(=O)c1cc(C(F)(F)F)nn1-c1ncccc1Cl` [Compound (I-2), 5-chloro-2-[1-(3-chloropyridin-2-yl)-3-trifluoromethylpyrazol-5-ylcarbonylamino]-N-isopropyl-3-methylbenzamide] was tested, and the “Death rate, 4 days later, %” value ([1]; 0.0016 mg/plant) was 0% and the “Death rate, 3 days later, %” value [4] was 30%.

With `Cc1cccc(C(=O)NC(C)C)c1NC(=O)c1cc(Cl)nn1-c1ncccc1Cl` [Compound (I-3), 2-[1-(3-chloropyridin-2-yl)-3-chloropyrazol-5-ylcarbonylamino]-N-isopropyl-3-methylbenzamide] the “Death rate, 4 days later, %” value ([1]; 0.04 mg/plant) was 50%.

In the case of `Cc1cc(Cl)cc(C(=O)NC(C)C)c1NC(=O)c1cc(Cl)nn1-c1ncccc1Cl` [Compound (I-4), 5-chloro-2-[1-(3-chloropyridin-2-yl)-3-chloropyrazol-5-ylcarbonylamino]-N-isopropyl-3-methylbenzamide], the “Death rate, 4 days later, %” value [5] is reported as 15%.

For `Cc1cccc(C(=O)NC(C)C)c1NC(=O)c1cc(Br)nn1-c1ncccc1Cl` [Compound (I-5), 2-[3-bromo-1-(3-chloropyridin-2-yl)pyrazol-5-ylcarbonylamino]-N-isopropyl-3-methylbenzamide], the “Death rate, 5 days later, %” value ([2]; single compound, 0.15 mg/plant, soil drench, rice, 3-instar larvae) was 5%.

For `Cc1cc(Cl)cc(C(=O)NC(C)C)c1NC(=O)c1cc(Br)nn1-c1ncccc1Cl` [Compound (I-6), 2-[3-bromo-1-(3-chloropyridin-2-yl)-pyrazol-5-ylcarbonylamino]-5-chloro-N-isopropyl-3-methylbenzamide], the “Death rate, 5 days later, %” value ([3]; 0.00032 ppm) was 0%.

With `CN1COCN(Cc2cnc(Cl)s2)C1=N[N+](=O)[O-]` [Thiamethoxam, 3-(2-chloro-1,3-thiazol-5-yl-methyl)-5-methyl-1,3,5-oxa-diazinan-4-ylidene(nitro)amine] the “Death rate, 5 days later, %” value ([3]; 0.007 ppm) was 0% and the “Death rate, 4 days later, %” value [5] was 10%.
